Measurements as given in patent US5792444A, “Labeled chemotactic peptides to image focal sites of infection or inflammation” (The General Hospital Corporation, priority 1993, dated 1998).
Where a SMILES comes first, the peptide text is derived from it. [ ]: non-standard residue; d: D form. The star is where a group is joined. HYNIC = NNc1ccc(C(=O)*)cn1; Ac6c = NC1(C(=O)O)CCCCC1; Nle = CCCC[C@H](N)C(=O)O; For = O=C*

How the values were obtained:
E. coli infection = system: E. coli infection; set-up: species or system New Zealand white rabbits; conditions: rabbit, in vivo
Method: In order to determine the feasibility of using radiolabeled chemotactic peptides for infection localization in animals that are sensitive to the neutropenic effects of these agents, imaging studies were performed in rabbits with focal E. coli infections. High specific activity ^99m Tc-labeled chemotactic peptide was used in these studies. Six male New Zealand white rabbits weighing 2-3 kg were anesthetized with ketamine and xylazine (15.0 and 1.5 mg/kg) and injected in the left posterior thigh muscle with a 1.0 mL suspension of approximately 2×10^9 E. coli. […] Images were recorded for a preset time of 5 minutes/view with a 15% window centered to include the 140 KeV photopeak of ^99m Tc. […]
After acquiring the final images, the animals were sacrificed by pentobarbital overdose and samples of blood, heart, lung, liver, spleen, kidney, stomach, intestine, testes, bone, marrow, normal skeletal muscle, infected skeletal muscle, and pus were weighed and radioactivity was measured as described above. To correct for radioactive decay, aliquots of the injected doses were counted simultaneously. The results were expressed as percent injected dose per gram. […] The cells were washed with 0.9% NaCl and the residual radioactivity in the cells and supernatant measured. […]

[1] = target: T1, chemoattractant receptor on human PMN's (Homo sapiens, UniProt P21462); assay: For-MLF receptor binding assay (For-ML[3H]F displacement); conditions: 15 nM For-ML[3H]F, 45 min, 24° C.
T1 construct: endogenous in cells; host or cells: isolated human PMN's (neutrophils) from healthy volunteers, intact cells
T1 sequence (P21462 1-350): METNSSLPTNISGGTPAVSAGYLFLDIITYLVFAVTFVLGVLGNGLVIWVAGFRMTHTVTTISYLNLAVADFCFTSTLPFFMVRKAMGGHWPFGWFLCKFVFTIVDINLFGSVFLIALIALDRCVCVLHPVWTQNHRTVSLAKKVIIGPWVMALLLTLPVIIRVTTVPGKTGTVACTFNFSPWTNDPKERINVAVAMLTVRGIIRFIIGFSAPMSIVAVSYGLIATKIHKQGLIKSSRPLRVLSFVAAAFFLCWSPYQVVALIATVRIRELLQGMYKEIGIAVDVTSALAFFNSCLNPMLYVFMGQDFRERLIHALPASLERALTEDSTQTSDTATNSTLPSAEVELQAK
Method: Following incubation, the cells were filtered onto glass fiber discs (Whatman GF/C; Whatman, Inc., Clifton, N.J.) which were then washed with 20 mL of ice cold incubation buffer. The filters were placed in scintillation vials with 10 mL of Safety-Solve (Research Products International Corp., Mt. Prospect, Ill.) and radioactivity was measured by liquid scintillation spectroscopy. Specific binding is defined as total binding minus nonspecific binding. Nonspecific binding is the amount of residual bound radioactivity in the presence of 10 μM unlabeled For-MLF.
(§1) The chemical purity of the final product was evaluated by TLC, HPLC, UV spectroscopy, mass spectroscopy, and amino acid analysis. Determinations of the EC50 's for binding to the chemoattractant receptor on human PMN's and superoxide generation were performed as described in Pike, M. C., and Snyderman, R., Methods Enzymol. 162:236-245 (1988); Pike, M. C., et al., Blood 67:909-913 (1986); and Fischman, A. J., et al., J. Nucl. Med. 32:483-491 (1991).

[2] = Example 1: biological activity (EC50) of peptide and DTPA derivative
From the text: The chemotactic peptide N-formyl-Nle-Leu-Phe-Nle-Tyr-Lys was synthesized using standard solid phase methods well-known in the art (Merrifield, R. B., J. Am. Chem. Soc. […]:2149-2154 (1963); Stewart, J. M., and Young, J. D., Solid Phase Peptide Synthesis, W. H. Freeman & Company, San Francisco, Calif. (1969)). The epsilon amino group of the C-terminal lysine was modified with DTPA using a cyclic anhydride. […] The peptide was readily radiolabeled with ^111 In.

sterile inflammation = system: sterile inflammation; set-up: species or system Rhesus monkeys; conditions: rhesus monkey, in vivo
Method: Two adult female Rhesus monkeys weighing approximately 10 kg were used in the imaging experiments. Since these animals had been used previously in imaging experiments with other radiopharmaceuticals, they had received numerous intramuscular injections in the right posterior thigh during the induction of anesthesia.
Under light ketamine anesthesia (5.5 mg/kg), the animals were injected intravenously through a leg vein with approximately 0.5 mCi ^99m -Tc-labeled peptide (<2.0 ng/kg). At 5 min, 30 min, 1 hr, and 19 hrs following injection of radiolabeled peptide, the animals were anesthetized with ketamine/xylazine (15.0 and 1.5 mg/kg) and whole body scintigrams were acquired using a large field of view gamma camera equipped with a parallel hole high resolution low energy collimator interfaced to a dedicated computer system (Technicare Gemini 700, Technicare 560, Solon, Ohio). […] At 5 minutes prior to injection and 1, 3, 5, and 15 minutes after injection 0.5 mL samples of blood were collected and the CBC was measured.
Regions of interest were drawn over: the whole animal, cardiac blood pool, lung, liver, spleen, kidney, intestine, bone, normal muscle, and inflamed muscle; and count densities (CPM/pixel) were calculated. The results were expressed as tissue-to-blood pool, % injected dose/gram (%ID/g) and target to background ratios (inflamed thigh/contralateral thigh).

human neutrophils = assay: Assay of superoxide production (ferricytochrome C reduction); type: cell-based; conditions: 0.1 μM
Method: as §1

rabbit neutrophils = assay: Lysozyme release in rabbit neutrophils; type: cell-based
Method: The peptide that was prepared and tested was formyl-Met-Acc^6 -Phe--OH.

neutrophils [3] = target: T2, neutrophils (Homo sapiens, UniProt P21462); assay: Chemoattraction of human neutrophils; type: cell-based
T2 sequence (P21462 1-350): T1 sequence (P21462 1-350)
Method: (§2) In another preferred embodiment of the present invention, Y is 4-aminotetrahydropyran-4-carboxylic acid (Thp). […] The peptide that was prepared and tested was formyl-Thp-Leu-Phe-OMe.
The peptide that was prepared and tested was formyl-Met-Dpg-Phe--OH

neutrophils [4] = target: T2, neutrophils; assay: Superoxide production by human neutrophils (backbone analog); type: cell-based
Method: as §2

neutrophils [5] = target: T2, neutrophils; assay: Binding (Table I, Cell Biology Data)
From the text: Three non-DTPA derivatized peptides were included in the assay for comparison.

neutrophils [6] = target: T2, neutrophils; assay: Free radicals agonist (neutrophil free radical chemiluminescence); type: cell-based; conditions: class symbol
neutrophils [7] = target: T2, neutrophils; assay: Free radicals antagonist (inhibition of ForMLF stimulated free radical chemiluminescence); type: cell-based
neutrophils [8] = target: T2, neutrophils; assay: MPO (myeloperoxidase assay) release; type: cell-based; conditions: pH5
Method: (§3) The procedure of Example 5 was repeated for additional CP's within the scope of the present invention. The results are shown in Table I. In the table, MPO is myeloperoxidase assay, a "-" sign means there was no effect at 30 μM, a "+" sign means there was a positive effect at 30 μM, and "N.T." means "Not

[9] = system: neutrophils / human umbilical vein endothelial cells; assay: Adhesion agonist (neutrophil-endothelial cell adhesion assay); type: cell-based; conditions: class symbol; read-out: Adhesion Agonist EC50
Method: (§4) The unconjugated peptide iBoc-MLFK was evaluated in a neutrophil-endothelial cell adhesion assay. In this assay, neutrophils (5×10^5) labeled with 5-carboxyfluorescein diacetate were added into wells of a 48 well dish containing confluent human umbilical vein endothelial cells. The iBoc-MLFK peptide was added at a concentration of 10 μM 10 min prior to stimulation of neutrophils with 30 nM ForMLF. Percent adhesion was determined by washing off unattached neutrophils after an incubation period of 25 minutes. This peptide inhibited adhesion by 66% at this concentration. Subsequently, concentrations between 0.1-3.0 μM were examined. […] Inhibition of adhesion would reduce the infiltration of leukocytes, such as neutrophils, to a diseased site, thereby limiting the tissue damage associated with inflammation.
as §3

[10] = system: neutrophils / human umbilical vein endothelial cells; assay: cells; type: cell-based; conditions: read-out: Adhesion Antagonist IC50
Method: as §4, §3

In the case of `CSCC[C@H](NC=O)C(=O)N[C@@H](CC(C)C)C(=O)N[C@@H](Cc1ccccc1)C(=O)N[C@H](CCCCNC(=O)c1ccc(NN)nc1)C(N)=O` [Example 99mTc-HP4, metal not drawn] (For-MLF[dK](HYNIC)-NH2), the “percent residual circulating radioactivity that was cell associated” value (E. coli infection) is reported as “approximately 25%” and the “radioactivity of pus associated with WBC's” value (E. coli infection) is reported as “approximately 90%”.
Work on `CCCC[C@H](NC=O)C(=O)N[C@@H](CC(C)C)C(=O)N[C@@H](Cc1ccccc1)C(=O)N[C@@H](CCCC)C(=O)N[C@@H](Cc1ccc(O)cc1)C(=O)N[C@@H](CCCCN)C(=O)O` [For-NleLFNleYK, N-formyl-norleucyl-leucyl-phenylalanyl-norleucyl-tyrosyl-lysine] (For-[Nle]LF[Nle]YK-OH) yielded an EC50 [1] of 1 nM and an EC50 [2] of ~1 nM.
With `CSCC[C@H](NC=O)C(=O)N[C@@H](CC(C)C)C(=O)N[C@@H](Cc1ccccc1)C(=O)NCCCCCCNC(=O)c1ccc(NN)nc1` [HP3, For-MLFNH(CH2)6 NH-HYNIC] the “effects on WBC level” value (sterile inflammation) was “no significant effects”.
For `CCCCCCCCCCCCCC(=O)O[C@@H]1[C@@H](C)[C@@]2(O)[C@@H](C=C(CO)C[C@]3(O)C(=O)C(C)=C[C@@H]23)[C@@H]2C(C)(C)[C@]12OC(C)=O` [PMA, phorbol myristate acetate], the “maximal response of superoxide production” value (human neutrophils) was 22.9 nmol 02^- produced/10^6 cells/10 min.
For `CSCC[C@H](NC=O)C(=O)NC1(C(=O)N[C@@H](Cc2ccccc2)C(=O)O)CCCCC1` [formyl-Met-Acc^6 -Phe--OH] (For-Met-[Ac6c]-Phe-OH), the lysozyme release (rabbit neutrophils) was “potent inducer of lysozyme release”.
With formyl-Thp-Leu-Phe-OMe the chemoattractant activity (neutrophils [3]) was “chemoattractant agent to human neutrophils” and the “stimulation of superoxide production” value (neutrophils [4]) was “did not stimulate superoxide production”.
With iBoc--MLF--O--SPNH [Example 38] the EC50 (neutrophils [5]) was 150 to 5000 nM, the EC50 (neutrophils [6]) was > 30000 nM and the IC50 (neutrophils [7]) was 5000 to 6000 nM. For the same compound, the EC50 (neutrophils [8]) was 400 nM, the EC50 [9] was < 30000 nM and the IC50 [10] was > 30000 nM.
